The values that follow come from patent publication US9783573B2, “IAP antagonists” (BRISTOL-MYERS SQUIBB COMPANY, priority 2012, dated 2017).

Structures are written as SMILES. Like-named read-outs stand apart in the source and are kept apart here.

What all share (assay type): binding
The target in test [1] is His-BIR2-3 (125-356, C202A/C213G, XIAP) (Homo sapiens (Human), UniProt P98170, C202A/C213G). Description: XIAP-BIR2-3 Dimeric SMAC Peptide Homogeneous Time Resolved Fluorescence (HTRF) Assay. The note with it: fluorescein labeled dimeric SMAC peptide. The protocol: D. XIAP-BIR2-3 Dimeric SMAC Peptide Homogeneous Time Resolved Fluorescence (HTRF) Assay
(§1) Assays were performed in black, flat-bottom, 384-well plates.
A general note: In TR-FRET formats the signal depends on donor and acceptor labels being close together.

For test [2], the target named is His-BIR3 (241-356, XIAP) (Homo sapiens (Human), UniProt P98170). The test is described as follows: XIAP-BIR3/SMAC Homogeneous Time Resolved Fluorescence (HTRF) Assay. The conditions noted are these: fluorescein labeled SMAC peptide. How it is done: B. XIAP-BIR3/SMAC Homogeneous Time Resolved Fluorescence (HTRF) Assay
as §1

Test [3] has as its target N-His-Tb-BIR3 (241-356, XIAP) (Homo sapiens (Human), UniProt P98170). The test is described as follows: biochemical. The conditions noted are these: read-out: XIAP BIR3 FPA IC50.
The mark [4] stands for this setting: fluoresceinated modified SMAC peptide, fluorescence polarization.

Consider `CN[C@@H](C)C(=O)N[C@H](C(=O)N1C[C@@H](NC(=O)c2ccc(C(=O)Nc3ccc4c(c3)CN(C(=O)[C@@H](NC(=O)[C@H](C)NC)C(C)(C)SCC(=O)N(C)Cc3cccc(F)c3)[C@H](C(=O)N[C@@H]3CCCc5ccccc53)C4)cc2)C[C@H]1C(=O)N[C@@H]1CCCc2ccccc21)C(C)(C)C` [Example 62, N^1-((3S,5S)-1-((S)-3,3-Dimethyl-2-((S)-2-(methylamino)propanamido)butanoyl)-5-(((R)-1,2,3,4-tetrahydronaphthalen-1-yl)carbamoyl)pyrrolidin-3-yl)-N^4-((S)-2-((R)-3-((2-((3-fluorobenzyl)(methyl)amino)-2-oxoethyl)thio)-3-methyl-2-((S)-2-(methylamino)propanamido)butanoyl)-3-(((R)-1,2,3,4-tetrahydronaphthalen-1-yl)carbamoyl)-1,2,3,4-tetrahydroisoquinolin-7-yl)terephthalamide], for which the IC50 in test [1] was determined as 58 nM; in test [2], 73 nM.

On to `CN[C@@H](C)C(=O)N[C@H](C(=O)[C@@H]1C[C@H](NC(=O)[C@@H](CCC(F)(F)F)[C@@H](CCC(F)(F)F)C(=O)Nc2ccc3c(c2)CN(C(=O)[C@@H](NC(=O)[C@H](C)NC)C(C)(C)C)[C@H](C(=O)N[C@@H]2CCCc4ccccc42)C3)CN1C(=O)N[C@@H]1CCCc2ccccc21)C(C)(C)C` [Example 37, (2S,3R)-N^1-((3S,5S)-5-((S)-3,3-dimethyl-2-((S)-2-(methylamino)propanamido)butanoyl)-1-(((R)-1,2,3,4-tetrahydronaphthalen-1-yl)carbamoyl)pyrrolidin-3-yl)-N^4-((S)-2-((S)-3,3-dimethyl-2-((S)-2-(methylamino)propanamido)butanoyl)-3-(((R)-1,2,3,4-tetrahydronaphthalen-1-yl)carbamoyl)-1,2,3,4-tetrahydroisoquinolin-7-yl)-2,3-bis(3,3,3-trifluoropropyl) succinamide], for which the IC50 in test [3] (setting [4]) came out at 110 nM. On to `CN[C@@H](C)C(=O)N[C@H](C(=O)N1Cc2cc(NC(=O)C(F)(F)C(F)(F)C(=O)N[C@H]3C[C@@H](C(=O)N[C@@H]4CCCc5ccccc54)N(C(=O)[C@@H](NC(=O)[C@H](C)NC)C(C)(C)C)C3)ccc2C[C@H]1C(=O)N[C@@H]1CCCc2ccccc21)C(C)(C)C` [Example 17, N^1—((S)-2-((S)-3,3-Dimethyl-2-((S)-2-(methylamino)propanamido)butanoyl)-3-(((R)-1,2,3,4-tetrahydronaphthalen-1-yl)carbamoyl)-1,2,3,4-tetrahydroisoquinolin-7-yl)-N^4-((3S,5S)-1-((S)-3,3-dimethyl-2-((S)-2-(methylamino)propanamido)butanoyl)-5-(((R)-1,2,3,4-tetrahydronaphthalen-1-yl)carbamoyl)pyrrolidin-3-yl)-2,2,3,3-tetrafluorosuccinamide], for which the IC50 in test [3] was found to be 56 nM. As to `CN[C@@H](C)C(=O)N[C@H](C(=O)N1CC[C@@H](OCc2ccc(C(=O)N[C@H]3C[C@@H](C(=O)N[C@@H]4CCCc5ccccc54)N(C(=O)[C@@H](NC(=O)[C@H](C)NC)C(C)(C)C)C3)cc2)C[C@H]1C(=O)N[C@@H]1CCCc2ccccc21)C(C)(C)C` [Example 30, (2S,4R)-1-((S)-3,3-Dimethyl-2-((S)-2-(methylamino)propanamido)butanoyl)-4-((4-(((3S,5S)-1-((S)-3,3-dimethyl-2-((S)-2-(methylamino)propanamido)butanoyl)-5-(((R)-1,2,3,4-tetrahydronaphthalen-1-yl)carbamoyl)pyrrolidin-3-yl)carbamoyl)benzyl)oxy)-N—((R)-1,2,3,4-tetrahydronaphthalen-1-yl)piperidine-2-carboxamide], the IC50 in test [3] (setting [4]) was found to be 38 nM. On the same count and under the same terms, with `CN[C@@H](C)C(=O)N[C@H](C(=O)N1Cc2cc(NC(=O)c3ccc(CCC(=O)N[C@H]4C[C@@H](C(=O)N[C@@H]5CCCc6ccccc65)N(C(=O)[C@@H](NC(=O)[C@H](C)NC)C(C)(C)C)C4)cc3)ccc2C[C@H]1C(=O)N[C@@H]1CCCc2ccccc21)C(C)(C)C` [Example 9, (S)-2-((S)-3,3-Dimethyl-2-((S)-2-(methylamino)propanamido)butanoyl)-7-(4-(3-(((3S,5S)-1-((S)-3,3-dimethyl-2-((S)-2-(methylamino)propanamido)butanoyl)-5-(((R)-1,2,3,4-tetrahydronaphthalen-1-yl)carbamoyl)pyrrolidin-3-yl)amino)-3-oxopropyl)benzamido)-N-((R)-1,2,3,4-tetrahydronaphthalen-1-yl)-1,2,3,4-tetrahydroisoquinoline-3-carboxamide] the figure was 65 nM. `CN[C@@H](C)C(=O)N[C@H](C(=O)N1Cc2ccc(NC(=O)c3ccc(C(=O)N[C@H]4C[C@@H](C(=O)N[C@@H]5CCCc6ccccc65)N(C(=O)[C@@H](NC(=O)[C@H](C)NC)C(C)(C)C)C4)cc3)cc2C[C@H]1C(=O)N[C@@H]1CCCc2ccccc21)C(C)(C)C` [Example 2, N^1—((S)-2-((S)-3,3-Dimethyl-2-((S)-2-(methylamino)propanamido)butanoyl)-3-(((R)-1,2,3,4-tetrahydronaphthalen-1-yl)carbamoyl)-1,2,3,4-tetrahydroisoquinolin-6-yl)-N^4-((3S,5S)-1-((S)-3,3-dimethyl-2-((S)-2-(methylamino)propanamido)butanoyl)-5-(((R)-1,2,3,4-tetrahydronaphthalen-1-yl)carbamoyl)pyrrolidin-3-yl)terephthalamide] displayed an IC50 in test [1] of 4 nM. With `CN[C@@H](C)C(=O)N[C@H](C(=O)N1Cc2cc(C(=O)NC(C)(C)C(=O)N[C@H]3C[C@@H](C(=O)N[C@@H]4CCCc5ccccc54)N(C(=O)[C@@H](NC(=O)[C@H](C)NC)C(C)(C)C)C3)ccc2C[C@H]1C(=O)N[C@@H]1CCCc2ccccc21)C(C)(C)C` [Example 29, (S)-2-((S)-3,3-Dimethyl-2-((S)-2-(methylamino)propanamido)butanoyl)-N7-(1-(((3S,5S)-1-((S)-3,3-dimethyl-2-((S)-2-(methylamino)propanamido)butanoyl)-5-(((R)-1,2,3,4-tetrahydronaphthalen-1-yl)carbamoyl)pyrrolidin-3-yl)amino)-2-methyl-1-oxopropan-2-yl)-N3-((R)-1,2,3,4-tetrahydronaphthalen-1-yl)-1,2,3,4-tetrahydroisoquinoline-3,7-dicarboxamide], the IC50 in test [3] (setting [4]) is 61 nM. The same measure, in the same setting: the value for `CC[C@H](NC)C(=O)N[C@H](C(=O)N1Cc2cc(NC(=O)c3ccc(C(=O)N[C@H]4C[C@@H](C(=O)N[C@@H]5CCCc6ccccc65)N(C(=O)[C@@H](NC(=O)[C@H](C)NC)C(C)(C)C)C4)cc3)ccc2C[C@H]1C(=O)N[C@@H]1CCCc2ccccc21)C(C)(C)C` [Example 15, N^1-((S)-2-((S)-3,3-Dimethyl-2-((S)-2-(methylamino)butanamido)butanoyl)-3-(((R)-1,2,3,4-tetrahydronaphthalen-1-yl)carbamoyl)-1,2,3,4-tetrahydroisoquinolin-7-yl)-N^4-((3S,5S)-1-((S)-3,3-dimethyl-2-((S)-2-(methylamino)propanamido)butanoyl)-5-(((R)-1,2,3,4-tetrahydronaphthalen-1-yl)carbamoyl)pyrrolidin-3-yl)terephthalamide] was 110 nM. Still for that read-out and setting: the value for `CN[C@@H](C)C(=O)N[C@H](C(=O)N1Cc2cc(N(C(=O)C3(C(N)=O)CCC3)[C@H]3C[C@@H](C(=O)N[C@@H]4CCCc5ccccc54)N(C(=O)[C@@H](NC(=O)[C@H](C)NC)C(C)(C)C)C3)ccc2C[C@H]1C(=O)N[C@@H]1CCCc2ccccc21)C(C)(C)C` [Example 5, N-((S)-2-((S)-3,3-Dimethyl-2-((S)-2-(methylamino)propanamido)butanoyl)-3-(((R)-1,2,3,4-tetrahydronaphthalen-1-yl)carbamoyl)-1,2,3,4-tetrahydroisoquinolin-7-yl)-N-((3S,5S)-1-((S)-3,3-dimethyl-2-((S)-2-(methylamino)propanamido)butanoyl)-5-(((R)-1,2,3,4-tetrahydronaphthalen-1-yl)carbamoyl)pyrrolidin-3-yl)cyclobutane-1,1-dicarboxamide] was 69 nM. For the molecule `CN[C@@H](C)C(=O)N[C@H](C(=O)N1Cc2cc(NC(=O)c3ccc(CO[C@H]4C[C@@H](C(=O)N[C@@H]5CCCc6ccccc65)N(C(=O)[C@@H](NC(=O)[C@H](C)NC)C(C)(C)C)C4)cc3)ccc2C[C@H]1C(=O)N[C@H](C)c1ccccc1F)C(C)(C)C` [Example 50, (S)-2-((S)-3,3-Dimethyl-2-((S)-2-(methylamino)propanamido)butanoyl)-7-(4-((((3S,5S)-1-((S)-3,3-dimethyl-2-((S)-2-(methylamino)propanamido)butanoyl)-5-(((R)-1,2,3,4-tetrahydronaphthalen-1-yl)carbamoyl)pyrrolidin-3-yl)oxy)methyl)benzamido)-N-((R)-1-(2-fluorophenyl)ethyl)-1,2,3,4-tetrahydroisoquinoline-3-carboxamide], in test [3] (setting [4]), the IC50 stood at 53 nM. The same measure, in the same setting: the value for `CN[C@@H](C)C(=O)N[C@H](C(=O)N1Cc2cc(NC(=O)C3CC4(C3)CC(C(=O)N[C@H]3C[C@@H](C(=O)N[C@@H]5CCCc6ccccc65)N(C(=O)[C@@H](NC(=O)[C@H](C)NC)C(C)(C)C)C3)C4)ccc2C[C@H]1C(=O)N[C@@H]1CCCc2ccccc21)C(C)(C)C` (stereo partly drawn) [Example 7, N^2-((S)-2-((S)-3,3-Dimethyl-2-((S)-2-(methylamino)propanamido)butanoyl)-3-(((R)-1,2,3,4-tetrahydronaphthalen-1-yl)carbamoyl)-1,2,3,4-tetrahydroisoquinolin-7-yl)-N^6-((3S,5S)-1-((S)-3,3-dimethyl-2-((S)-2-(methylamino)propanamido)butanoyl)-5-(((R)-1,2,3,4-tetrahydronaphthalen-1-yl)carbamoyl)pyrrolidin-3-yl)spiro[3.3]heptane-2,6-dicarboxamide] was 83 nM.

The term IC50 denotes the concentration that inhibits the measured activity by half.
